Data reported in patent US12649712B2, “Indene compounds, pharmaceutical compositions thereof, and their therapeutic applications” (NucMito Pharmaceuticals Co. Ltd., priority 2020, dated 2026).

Tested on: alpha-smooth muscle actin (α-SMA)
Assay: Inhibition of TGF-β induced expression of alpha-smooth muscle actin (α-SMA) in CFSC cells, western blot
Assay type: cell-based
Conditions: compound at 10 μM, TGF-β (10 ng/mL), 24 hours, decrease in band intensity vs TGF-β only
Protocol: The ability of a compound to inhibit the TGF-β induced expression of alpha-smooth muscle actin (α-SMA) was evaluated in CCL4-treated fat storing (CFSC) cells. α-SMA is considered as a reliable marker of hepatic stellate cell activation and a key biomarker for liver fibrosis. See, e.g., Meng et al., Nat. Rev. Nephrol. 2016, 12, 325-38; Fabregat et al., FEBS J. 2016, 283, 2219-32.
CFSC cells maintained in a DMEM medium supplemented with 10% fetal bovine serum were seeded to 12-well culture dishes and grown to a confluence of 60-70% the next day. Culture was changed to a serum-free DMEM medium and treated with a compound at 10 μM in the presence of TGF-β (10 ng/mL). The cells were incubated for another 24 hours. All culture was maintained at 37° C. in 5% carbon dioxide.
A NP-40 lysate solution (50 mM Tris (pH 7.4), 150 mM NaCl, 1% NP-40) with EDTA free cocktail added was used to lyse the cells on ice for 30 min. The lysate was collected and centrifuged at 4° C. for 10 min at 12,000 rpm. The pellet was discarded and the supernatant was transferred to a new tube. Cell lysates were loaded with 5×loading buffer and boiled for 10 min, resolved by 10% SDS-polyacrylamide gel electrophoresis (SDS-PAGE), and transferred to PVDF membrane. The membrane was blocked with 5% skim milk in Tris-buffered saline and TWEEN® 20 (TBST; 10 mM Tris-HCl (pH 8.0), 150 mM NaCl, 0.1% TWEEN® 20) for 1 h at room temperature and then incubated with α-SMA and […] antibodies overnight at 4° C. After washing twice with TBST, the membrane was probed with a horseradish […] anti-immunoglobulin (1:5000 dilution) for 1 h at room temperature. After two subsequent rinses in TBST, immunoreactive products were reacted with ECL and visualized by a UVP CHEMSTUDIO™ imaging system. The western blotting bands are quantitated using an ImageJ software. The percentage of inhibition was obtained by calculating the percentage decrease in the band intensity compared to the one treated with TGF-β only.
The results are summarized in Table 1, wherein A represents a value no less of 90% inhibition, B represents a value less than 90% but no less than 80% inhibition, C represents a value less than 80% but no less than 70% inhibition, D represents a value less than 70% but no less than 50% inhibition, and E represents a value less than 50% with a compound at 10 μM.

CC1=C(CC(=O)O)c2cc(F)ccc2/C1=C\c1ccc(Oc2ccccc2)cc1 [Compound A1, 2-[(1Z)-5-Fluoro-2-methyl-1-[(4-phenoxyphenyl)methylidene]-1H-inden-3-yl]acetic acid] was tested, and the inhibition at 10 µM was > 90%.
With COc1ccc(Oc2ccc(/C=C3/C(C)=C(CC(=O)O)c4cc(F)ccc43)cc2)cc1 [Compound A2, 2-[(1Z)-5-Fluoro-1-{[4-(4-methoxyphenoxy)phenyl]methylidene}-2-methyl-1H-inden-3-yl]acetic acid] the inhibition at 10 µM was > 90%.
CC1=C(CC(=O)O)c2cc(F)ccc2/C1=C\c1ccc(Oc2cccc(C(F)(F)F)c2)cc1Cl [Compound A3, 2-[(1Z)-1-({2-Chloro-4-[3-(trifluoromethyl)phenoxy]phenyl}methylidene)-5-fluoro-2-methyl-1H-inden-3-yl]acetic acid] was tested, and the inhibition at 10 µM was > 90%.
CC1=C(CC(=O)O)c2cc(F)ccc2/C1=C\c1ccc(Oc2ccc(C)cc2)cc1 [Compound A4, 2-[(1Z)-5-Fluoro-2-methyl-1-{[4-(4-methylphenoxy)phenyl]methylidene}-1H-inden-3-yl]acetic acid] was tested, and the inhibition at 10 µM was > 90%.
CC1=C(CC(=O)O)c2cc(F)ccc2/C1=C\c1ccc(Oc2ccc(C(C)C)cc2)cc1 [Compound A5, 2-[(1Z)-5-Fluoro-2-methyl-1-({4-[4-(propan-2-yl)phenoxy]phenyl}methylidene)-1H-inden-3-yl]acetic acid] was tested, and the inhibition at 10 µM was > 90%.
CC1=C(CC(=O)O)c2cc(F)ccc2/C1=C\c1ccc(Oc2ccc(Br)cc2)cc1 [Compound A6, 2-[(1Z)-1-{[4-(4-Bromophenoxy)phenyl]methylidene}-5-fluoro-2-methyl-1H-inden-3-yl]acetic acid] was tested, and the inhibition at 10 µM was > 90%.
For CC1=C(CC(=O)O)c2cc(F)ccc2/C1=C\c1ccc(Oc2cccc(C)c2)cc1 [Compound A7, 2-[(1Z)-5-Fluoro-2-methyl-1-{[4-(3-methylphenoxy)phenyl]methylidene}-1H-inden-3-yl]acetic acid], the inhibition at 10 µM was > 90%.
In the case of CC1=C(CC(=O)O)c2cc(F)ccc2/C1=C\c1ccc(Oc2cccc(C(F)(F)F)c2)cc1 [Compound A9, (Z)-2-(5-Fluoro-2-methyl-1-(4-(3-(trifluoromethyl)phenoxy)benzylidene)-1H-inden-3-yl)acetic acid], the inhibition at 10 µM is reported as > 90%.
With CCc1ccc(Oc2ccc(/C=C3/C(C)=C(CC(=O)O)c4cc(F)ccc43)cc2)cc1 [Compound A10, 2-[(1Z)-1-{[4-(4-Ethylphenoxy)phenyl]methylidene}-5-fluoro-2-methyl-1H-inden-3-yl]acetic acid] the inhibition at 10 µM was > 90%.
In the case of COc1ccc(Oc2ccc(/C=C3/C(C)=C(CC(=O)O)c4cc(F)ccc43)c(Cl)c2)cc1 [Compound A12, 2-[(1Z)-1-{[2-Chloro-4-(4-methoxyphenoxy)phenyl]methylidene}-5-fluoro-2-methyl-1H-inden-3-yl]acetic acid], the inhibition at 10 µM is reported as > 90%.
COc1cc(Oc2ccc(C(C)C)cc2)ccc1/C=C1/C(C)=C(CC(=O)O)c2cc(F)ccc21 [Compound A13, 2-[(1Z)-5-Fluoro-1-({2-methoxy-4-[4-(propan-2-yl)phenoxy]phenyl}-methylidene)-2-methyl-1H-inden-3-yl]acetic acid] was tested, and the inhibition at 10 µM was < 50%.
In the case of CC1=C(CC(=O)O)c2cc(F)ccc2/C1=C\c1ccc(Oc2ccc3ccccc3c2)cc1 [Compound A14, 2-[(1Z)-5-Fluoro-2-methyl-1-{[4-(naphthalen-2-yloxy)phenyl]methylidene}-1H-inden-3-yl]acetic acid], the inhibition at 10 µM is reported as > 90%.
For CC1=C(CC(=O)O)c2cc(F)ccc2/C1=C\c1ccc(Oc2ccc(C(C)C)cc2)cc1Cl [Compound A15, 2-[(1Z)-1-({2-Chloro-4-[4-(propan-2-yl)phenoxy]phenyl}methylidene)-5-fluoro-2-methyl-1H-inden-3-yl]acetic acid], the inhibition at 10 µM was 80 to 90%.
In the case of CC1=C(CC(=O)O)c2cc(F)ccc2/C1=C\c1ccc(Oc2ccc(F)cc2F)cc1 [Compound A16, 2-[(1Z)-1-{[4-(2,4-Difluorophenoxy)phenyl]methylidene}-5-fluoro-2-methyl-1H-inden-3-yl]acetic acid], the inhibition at 10 µM is reported as > 90%.
With CC1=C(CC(=O)O)c2cc(F)ccc2/C1=C\c1ccc(Oc2ccc(F)cc2Br)cc1 [Compound A17, 2-[(1Z)-1-{[4-(2-bromo-4-fluorophenoxy)phenyl]methylidene}-5-fluoro-2-methyl-1H-inden-3-yl]acetic acid] the inhibition at 10 µM was > 90%.
In the case of CC1=C(CC(=O)O)c2cc(F)ccc2/C1=C\c1ccc(Oc2cc(F)c(F)cc2F)cc1 [Compound A18, 2-[(1Z)-5-Fluoro-2-methyl-1-{[4-(2,4,5-trifluorophenoxy)phenyl]methylidene}-1H-inden-3-yl]acetic acid], the inhibition at 10 µM is reported as 70 to 80%.
With CC1=C(CCC(=O)O)c2ccccc2/C1=C\c1ccc(Oc2ccc(F)cc2)cc1 [Compound A19, 3-[(1Z)-1-{[4-(4-Fluorophenoxy)phenyl]methylidene}-2-methyl-1H-inden-3-yl]propanoic acid] the inhibition at 10 µM was > 90%.
For CC1=C(CC(=O)O)c2cc(F)ccc2/C1=C\c1ccc(Oc2ccc(F)nc2)cc1 [Compound A20, 2-[(1Z)-5-Fluoro-1-({4-[(6-fluoropyridin-3-yl)oxy]phenyl}methylidene)-2-methyl-1H-inden-3-yl]acetic acid], the inhibition at 10 µM was < 50%.
For CC1=C(CC(=O)O)c2cc(F)ccc2/C1=C\c1ccc(Oc2cnc(F)c(C)c2)cc1 [Compound A21, 2-[(1Z)-5-Fluoro-1-({4-[(6-fluoro-5-methylpyridin-3-yl)oxy]phenyl}-methylidene)-2-methyl-1H-inden-3-yl]acetic acid], the inhibition at 10 µM was 80 to 90%.
Molecule CC1=C(CC(=O)O)c2cc(F)ccc2/C1=C\c1ccc(Oc2cccc3ncccc23)cc1 [Compound A22, (Z)-2-(5-Fluoro-2-methyl-1-(4-(quinolin-5-yloxy)benzylidene)-1H-inden-3-yl)acetic acid] has an inhibition at 10 µM of 50 to 70%.
CC1=C(CC(=O)NO)c2cc(F)ccc2/C1=C\c1ccc(Oc2ccccc2)cc1 [Compound A23, 2-[(1Z)-5-Fluoro-2-methyl-1-[(4-phenoxyphenyl)methylidene]-1H-inden-3-yl]-N-hydroxyacetamide] was tested, and the inhibition at 10 µM was > 90%.
CC1=C(CC(=O)NO)c2cc(F)ccc2/C1=C\c1ccc(Oc2ccc(F)cc2)cc1 [Compound A24, 2-[(1Z)-5-Fluoro-1-{[4-(4-fluorophenoxy)phenyl]methylidene}-2-methyl-1H-inden-3-yl]-N-hydroxyacetamide] gave an inhibition at 10 µM of 80 to 90%.
In the case of CC1=C(CC(N)=O)c2cc(F)ccc2/C1=C\c1ccc(Oc2ccc(F)cc2)cc1 [Compound A25, 2-[(1Z)-5-Fluoro-1-{[4-(4-fluorophenoxy)phenyl]methylidene}-2-methyl-1H-inden-3-yl]acetamide], the inhibition at 10 µM is reported as 70 to 80%.
CNC(=O)CC1=C(C)/C(=C/c2ccc(Oc3ccc(F)cc3)cc2)c2ccc(F)cc21 [Compound A26, 2-[(1Z)-5-Fluoro-1-{[4-(4-fluorophenoxy)phenyl]methylidene}-2-methyl-1H-inden-3-yl]-N-methylacetamide] was tested, and the inhibition at 10 µM was 70 to 80%.
Work on CC1=C(CC(=O)NCCO)c2cc(F)ccc2/C1=C\c1ccc(Oc2ccc(F)cc2)cc1 [Compound A27, 2-[(1Z)-5-Fluoro-1-{[4-(4-fluorophenoxy)phenyl]methylidene}-2-methyl-1H-inden-3-yl]-N-(2-hydroxyethyl)acetamide] yielded an inhibition at 10 µM of 80 to 90%.
In the case of CC1=C(CC(=O)O)c2cc(F)ccc2/C1=C\c1ccc(N(C)c2ccccc2)cc1 [Compound A29, 2-[(1Z)-5-Fluoro-2-methyl-1-({4-[methyl(phenyl)amino]phenyl}methylidene)-1H-inden-3-yl]acetic acid], the inhibition at 10 µM is reported as 70 to 80%.
CC1=C(CC(=O)O)c2cc(F)ccc2/C1=C\c1ccc(N(Cc2ccccc2)c2ccc(F)cc2)cc1 [Compound A30, 2-[(1Z)-1-({4-[Benzyl(4-fluorophenyl)amino]phenyl}methylidene)-5-fluoro-2-methyl-1H-inden-3-yl]acetic acid] was tested, and the inhibition at 10 µM was 70 to 80%.
In the case of CC1=C(CC(=O)O)c2cc(F)ccc2/C1=C\c1ccc(N(C)c2ccc(F)cc2)cc1 [Compound A31, 2-[(1Z)-5-Fluoro-1-({4-[(4-fluorophenyl)(methyl)amino]phenyl}methylidene)-2-methyl-1H-inden-3-yl]acetic acid], the inhibition at 10 µM is reported as > 90%.
CCN(c1ccc(F)cc1)c1ccc(/C=C2/C(C)=C(CC(=O)O)c3cc(F)ccc32)cc1 [Compound A32, 2-[(1Z)-1-({4-[Ethyl(4-fluorophenyl)amino]phenyl}methylidene)-5-fluoro-2-methyl-1H-inden-3-yl]acetic acid] was tested, and the inhibition at 10 µM was > 90%.
